Test results: US5516936A, “Inhibitors of kynureninase” (University of Georgia Research Foundation, Inc., priority 1993, dated 1996)
Entries after “also recorded” stand apart in the source; their conditions may differ. Like-named read-outs stand apart in the source and are kept apart here.

Columns and labels:
[1] = target: T1, rat liver kynureninase (Rattus norvegicus, UniProt P70712); settings: Wiss and Fuchs (1950); cited from earlier work
T1 construct: host or cells: rat liver
T1 sequence (P70712 1-464): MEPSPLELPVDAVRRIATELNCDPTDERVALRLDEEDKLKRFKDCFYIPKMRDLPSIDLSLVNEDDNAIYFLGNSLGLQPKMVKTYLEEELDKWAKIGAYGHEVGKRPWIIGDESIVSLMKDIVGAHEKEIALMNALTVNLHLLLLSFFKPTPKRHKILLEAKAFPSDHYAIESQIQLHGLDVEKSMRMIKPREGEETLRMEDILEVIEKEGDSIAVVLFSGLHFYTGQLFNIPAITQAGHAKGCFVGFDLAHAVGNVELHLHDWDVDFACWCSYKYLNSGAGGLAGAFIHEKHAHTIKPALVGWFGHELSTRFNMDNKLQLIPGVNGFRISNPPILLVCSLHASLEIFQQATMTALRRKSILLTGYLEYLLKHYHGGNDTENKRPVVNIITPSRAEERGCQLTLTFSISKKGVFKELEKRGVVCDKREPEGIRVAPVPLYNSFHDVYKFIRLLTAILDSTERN

[2] = system: kynureninase of P. fluorescens; settings: cited from earlier work
[3] = system: bacterial kynureninase; settings: Hayaishi (1955); cited from earlier work
[4] = target: T1, rat liver kynureninase; assay: Inhibition of rat liver kynureninase (cysteine conjugate β-lyase activity with S-(2-benzothiazolyl)cysteine); assay type: biochemical; settings: S-(2-benzothiazolyl)cysteine as substrate
Experimental: Inhibition of mammalian kynureninase can be measured using several different assays for enzyme activity. Rat liver kynureninase is obtained from homogenization of rat liver, followed by precipitation with (NH4)2 SO4, as described by Stevens, J. L., J. Biol. Chem. (1985) 260:7945-7950, which is incorporated by reference herein. The activity of rat liver kynureninase was assessed by measurement of the cysteine conjugate β-lyase activity, as described by Stevens (supra), with S-(2-benzothiazolyl)cysteine, a nonphysiological chromophoric substrate. Inhibition of kynureninase by the dihydrokynurenine diastereomers was assessed with respect to reaction with that substrate.

[5] = target: T2, Kynureninase (Pseudomonas fluorescens, UniProt P83788); assay: Reactivity of dihydrokynurenine and L-kynurenine with bacterial kynureninase; assay type: biochemical; settings: pH 8.0, 25°; for reactivity with kynureninase (in words): o-aminobenzaldehyde formation at 360 nm
T2 construct: Bacterial kynureninase was prepared from cells of Pseudomonas fluorescens; endogenous in cells; partially purified by DEAE-cellulose and ammonium sulfate
T2 sequence (P83788 1-416): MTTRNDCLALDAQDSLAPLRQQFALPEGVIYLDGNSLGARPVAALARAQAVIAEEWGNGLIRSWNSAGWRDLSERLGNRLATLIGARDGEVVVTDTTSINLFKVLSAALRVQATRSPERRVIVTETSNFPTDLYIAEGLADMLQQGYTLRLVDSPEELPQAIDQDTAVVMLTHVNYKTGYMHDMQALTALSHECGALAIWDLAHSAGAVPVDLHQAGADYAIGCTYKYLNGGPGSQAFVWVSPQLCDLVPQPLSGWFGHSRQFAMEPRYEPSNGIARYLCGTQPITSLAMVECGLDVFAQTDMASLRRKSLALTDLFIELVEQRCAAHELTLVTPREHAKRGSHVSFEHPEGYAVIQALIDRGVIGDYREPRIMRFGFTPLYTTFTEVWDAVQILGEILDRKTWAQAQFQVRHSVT
Experimental: (§1) Bacterial kynureninase was prepared from cells of Pseudomonas fluorescens (ATCC 11250, for example) essentially as described by .Hayaishi and Stanier (1952) J. Biol. Chem. 195:735-740. Cells were grown on a minimal medium containing 0.1% L-tryptophan as the sole carbon and nitrogen source.
From 100 1 of medium, grown for 18 h at 30° C. […] The cells were suspended in 1 of 0.01M potassiumphosphate, pH 7.0, and disrupted by 2 passages through a Manton-Gaulin homogenizer. After centrifugation of the cell extract for 1 h at 10000 g, the enzyme was partially purified by ion-exchange chromatography on DEAE-cellulose and ammonium sulfate precipitation.
The reactivity of the two dihydrokynurenines with kynureninase in 0.1M potassium phosphate buffer, pH 8.0, at 25° was examined. Reaction was followed by the appearance of o-aminobenzaldehyde, as determined spectrophotometrically by the increase in absorbance at 360 nm (See Tanizawa and Soda (1979) Biochem. (Tokyo) 86:1199-1209, which is incorporated by reference herein).

[6] = target: T2, Kynureninase; assay: Inhibition of bacterial kynureninase by dihydrokynurenine; assay type: biochemical
Experimental: As an extension of these mechanistic studies, the reactivities of dihydrokynurenine diastereomers were examined. […] This increased affinity of (αS,γS)-dihydrokynurenine is characteristic of mechanism-based, or "transition-state analogue" inhibitors.
as §1
(§2) From 100 1 of medium, grown for 18 h at 30° C. 230 g of wet cell paste was obtained. The cells were suspended in 1 of 0.01M potassiumphosphate, pH 7.0, and disrupted by 2 passages through a Manton-Gaulin homogenizer. After centrifugation of the cell extract for 1 h at 10000 g, the enzyme was partially purified by ion-exchange chromatography on DEAE-cellulose and ammonium sulfate precipitation.
Inhibition of kynureninase by dihydrokynurenine was measured by including the potential inhibitor in the enzyme assay mixture (see Example 1 and Tanzawa and Soda (1979) supra) and determining the apparent Km for L-kynurenine (the preferred substrate of bacterial kynurenine) in the absence and presence of the potential inhibitor. Ki values were then calculated using the standard equation: […]
Inhibition of kynureninase by the (αS,γR)- and (αS,γS)-diastereomers of dihydrokynurenine was examined and Ki 's were determined. […] The Ki value for the […] was lower than for the (αS,γR)-diastereomer.

[7] = system: rat renal C-S lyase; settings: kidney slice methodology; cited from earlier work
[8] = target: bacterial kynureninase; settings: Kishore (1984), cited from earlier work
[9] = target: T2, Kynureninase; assay: Competitive inhibition of kynureninase by S-aryl cysteines and S-aryl cysteine sulfones; assay type: biochemical; settings: Table 1; competitive inhibition vs L-kynurenine, pH 7.8, 25° C.; footnote 1: 0.07 is an upper limit; read-out: Ki
Experimental: as §1, §2
Kynureninase activity was measured at 25° C. by following the decrease in absorbance at 360 nm (ε=-4500M^-1 cm^-1). A typical assay mixture contained 0.4 mM L-kynurenine in 0.04M potassium phosphate, pH 7.8, containing 40 μM pyridoxal-5'-phosphate, at 25° C. The reactions of S-aryl cysteines and S-aryl cysteine sulfones with kynureninase were performed using a spectrophotometric coupled assay with lactate dehydrogenase and NADH, by monitoring a decrease in absorbance due to pyruvate formation. A typical assay mixture contained 30 μl lactate dehydrogenase solution (2 mg/ml), 0.1 mM NADH, 40 μM pyridoxal-5'-phosphate, 0.04M tris.HCl buffer, pH 7.8, with varying concentrations of the compounds. The competitive inhibition of these compounds was measured by variation of L-kynurenine concentrations at several fixed values of the inhibitor. Km and Vmax values were calculated by fitting of initial rate data to the Michaelis-Menten equation with ENZFITTER (Elsevier) on a Z-286 personal computer. KI values were determined from the equation:
v=Vmax[S]/ (Km (1+[I]/Ki)+[S]

[10] = system: bacterial kynureninase; settings: cited from earlier work; for inhibition of bacterial kynureninase (in words): Tanizawa and Soda (1979)

In the case of `CC(=O)CC(N)C(=O)O` (stereo not drawn) [2-aminolevulinic acid], the “reaction with rat liver kynureninase to produce alanine (in words)” value (“reaction with rat liver kynureninase” below) [1] is given as “reacted with rat liver kynureninase”.
For `Nc1c(O)cccc1C(=O)C[C@H](N)C(=O)O` [3-hydroxy-L-kynurenine, α,2-diamino-3-hydroxy-γ-oxobenzenebutanoic acid], the Km ([2]; Tanizawa and Soda (1979)) is given as 200 µM, the “substrate of kynureninase (in words)” value ([2]; Tanizawa and Soda (1979)) is given as “substrates” and the “reaction with rat liver kynureninase” value [1] is given as “reacted with rat liver kynureninase”. For the same compound, the “substrate of bacterial kynureninase (in words)” value [3] was “substrates”.
With `Nc1ccccc1[C@H](O)C[C@H](N)C(=O)O` [(αS,γR)-dihydrokynurenine, (αS;γR)-α,2-diamino-γ-hydroxybenzenebutanoic acid] the “inhibition of rat liver kynureninase (in words)” value [4] was “inhibit the reaction of rat liver kynureninase”, the “rate of reaction relative to L-kynurenine” value ([5]; 0.1M potassium phosphate buffer) was “about 5%” and the “reactivity with kynureninase (in words)” value [5] was “reacted slowly with kynureninase”. The “reactivity with kynureninase (in words)” value ([5]; listed as (αS,γR)-Dihydrokynurenine) was “slow substrate”, the “inhibition of reaction with L-kynurenine (in words)” value ([6]; bacterial kynureninase, listed as (αS,γR)-diastereomer) was “strongly inhibited; also recorded: competitive inhibitors” and the “Ki value (comparison in words)” value ([6]; compared between dihydrokynurenine diastereomers) was “lower”. The Ki ([6]; competitive with respect to L-kynurenine) was 5 µM.
For `Nc1ccccc1C(=O)C[C@H](N)C(=O)O` [L-kynurenine, α,2-diamino-γ-oxobenzenebutanoic acid], the Km ([2]; Tanizawa and Soda (1979)) is listed as 35 µM and the “reaction with rat liver kynureninase” value [1] is listed as “reacted with rat liver kynureninase”.
For `N[C@@H](CC(=O)c1ccccc1NC=O)C(=O)O` [N'-formyl-L-kynurenine], the “substrate of kynureninase (in words)” value ([2]; Tanizawa and Soda (1979)) is given as “substrates”, the Km ([2]; bacterial kynureninase) is given as 2200 µM and the “substrate of bacterial kynureninase (in words)” value [3] is given as “not a substrate”.
In the case of `CC(=O)N[C@@H](CSc1c([N+](=O)[O-])cccc1[N+](=O)[O-])C(=O)O` [N-acetyl-S-(2,6-dinitrophenyl)-L-cysteine], the “inhibition of C-S lyase (in words)” value [7] is listed as “inhibit”.
For `CC(=O)N[C@@H](CSc1ccc([N+](=O)[O-])cc1Cl)C(=O)O` [N-acetyl-S-(2-chloro-4-nitrophenyl)-L-cysteine], the “inhibition of C-S lyase (in words)” value [7] is given as “inhibit”.
In the case of `CC(=O)N[C@@H](CSc1ccc([N+](=O)[O-])c([N+](=O)[O-])c1)C(=O)O` [N-acetyl-S-(3,4-dinitrophenyl)-L-cystsine], the “inhibition of C-S lyase (in words)” value [7] is listed as “inhibit”.
In the case of `N[C@@H](CSc1c([N+](=O)[O-])cccc1[N+](=O)[O-])C(=O)O` [S-(2,6-dinitrophenyl)-L-cysteine], the “inhibition of C-S lyase (in words)” value [7] is listed as “inhibit”.
In the case of `N[C@@H](CSc1ccccc1[N+](=O)[O-])C(=O)O` [S-(2-nitrophenyl)-L-cysteine], the Ki [8] is given as 100 µM, the “inactivation of kynureninase (in words)” value [8] is given as “inactivates kynureninase; also recorded: most efficient suicide substrate at low concentrations; also recorded: suicide inhibitor of kynureninase” and the “reaction with kynureninase (in words)” value [8] is given as “react with kynureninase to give pyruvate and ammonia”. The “inactivation of kynureninase (in words)” value ([8]; listed as S-(2-nitrophenyl)-L-cystsine) was “inactivated kynureninase”, the “inhibition of C-S lyase (in words)” value [7] was “inhibit” and the Ki [9] was 100 µM.
For `N[C@@H](CSc1ccc([N+](=O)[O-])cc1)C(=O)O` [S-(4-nitrophenyl)-L-cysteine], the “inhibition of C-S lyase (in words)” value [7] is listed as “inhibit”.
In the case of `O=Cc1ccccc1` [benzaldehyde], the “inhibition of bacterial kynureninase (in words)” value [10] is given as “inhibitors”.
For `CC(=O)c1ccccc1N` [o-aminoacetophenone], the “inhibition of bacterial kynureninase (in words)” value [10] is listed as “inhibitors”.
In the case of `Nc1ccccc1C=O` [o-aminobenzaldehyde], the “inhibition of bacterial kynureninase (in words)” value [10] is given as “strongly inhibited” and the Ki ([10]; non-competitive inhibition) is given as 6.5 µM.
For `O=Cc1ccccc1[N+](=O)[O-]` [o-nitrobenzaldehyde], the “inhibition of bacterial kynureninase (in words)” value [10] is listed as “inhibitors”.
For `CC(O)CC(N)C(=O)O` (stereo not drawn) [α-amino-γ-hydroxypentanoic acid], the “reaction with rat liver kynureninase” value [1] is listed as “reacted with rat liver kynureninase”.
In the case of `N[C@@H](CC(=O)c1ccccc1[N+](=O)[O-])C(=O)O` [β-(o-nitrobenzoyl)-L-alanine], the “reaction with rat liver kynureninase” value [1] is listed as “did not” and the “substrate of bacterial kynureninase (in words)” value [3] is listed as “do not react with bacterial kynureninase”.
For `N[C@@H](CC(=O)c1ccccc1)C(=O)O` [β-benzoyl-L-alanine], the “substrate of kynureninase (in words)” value ([2]; Tanizawa and Soda (1979)) is listed as “substrates”, the Km ([2]; bacterial kynureninase) is listed as 160 µM and the “reaction with rat liver kynureninase” value [1] is listed as “reacted with rat liver kynureninase”. The “substrate of bacterial kynureninase (in words)” value [3] was “substrates”.
In the case of `CC(O)C[C@H](N)C(=O)O` (stereo partly drawn) [γ-methyl-L-homoserine], the “reaction with rat liver kynureninase” value [1] is given as “reacted with rat liver kynureninase”.
For `N[C@@H](CC(O)c1ccccc1)C(=O)O` (stereo partly drawn) [γ-phenyl-L-homoserine], the “reaction with rat liver kynureninase” value [1] is given as “reacted with rat liver kynureninase”.
